Measurements taken from US20240300928A1, “GLP-1 RECEPTOR AGONIST, PHARMACEUTICAL COMPOSITION COMPRISING SAME, AND METHOD FOR PREPARING SAME” (LG CHEM, LTD., priority 2021, published 2024).

Molecular target: T1, hGLP-1R (Homo sapiens, UniProt P43220)
T1 construct: expressed in transfected cells; host or cells: CHO-K1 (hGLP-1R and CRE-luciferase reporter)
Assay: GLP-1R agonist activity measurement (cell-based luciferase assay)
Settings: CHO-K1/hGLP-1R/CRE-luciferase cell line, 4 h treatment, Bright-Glo luminescence
Description: Experimental Example 1: GLP-1R Agonist Activity Measurement (Cell-Based Luciferase Assay)
The CHO-K1/hGLP-1R/CRE-luciferase cell line was seeded at 15000 cells in a 96-well plate. As a medium, Ham's F-12 Nutrient medium was used. After culturing for 18 hours in a 5% CO2 incubator maintained at 37° C., the drug was treated. Each drug plated at 9 concentrations was dissolved in DMEM/F-12+1% FBS medium and treated with 100 ul of each cell line. After culturing for 4 h, 30 ul of assay reagent was added to each well using the Bright-Glo™ luciferase assay system kit. After the plate was stored at room temperature for 15 min, luminescence was measured with a SpectraMax M5 instrument.

T1 sequence (P43220 24-463): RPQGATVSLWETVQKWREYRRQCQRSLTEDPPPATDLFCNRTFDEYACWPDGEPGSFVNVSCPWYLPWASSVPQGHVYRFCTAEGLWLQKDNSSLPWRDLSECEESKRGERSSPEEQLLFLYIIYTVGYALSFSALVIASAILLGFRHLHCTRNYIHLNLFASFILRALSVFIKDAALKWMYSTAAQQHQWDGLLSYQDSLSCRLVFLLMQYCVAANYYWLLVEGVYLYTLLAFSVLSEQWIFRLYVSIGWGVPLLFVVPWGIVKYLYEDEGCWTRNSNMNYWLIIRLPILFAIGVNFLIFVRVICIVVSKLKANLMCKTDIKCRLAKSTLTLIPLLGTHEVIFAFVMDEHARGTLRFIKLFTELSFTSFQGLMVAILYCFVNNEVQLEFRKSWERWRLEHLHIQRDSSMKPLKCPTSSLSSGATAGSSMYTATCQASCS

SMILES | EC50 [nM]
O=C(O)c1ccc2nc(Cc3ccc(-c4cccnc4OCc4ccc(Cl)cc4F)cc3)n(C[C@@H]3CCO3)c2c1 [Example 1, (S)-2-(4-(2-((4-chloro-2-fluorobenzyl)oxy)pyridin-3-yl)benzyl)-1-(oxetan-2-ylmethyl)-1H-benzo[d]imidazol-6-carboxylic acid] | 0.316
CC1(c2ccc(Cl)cc2F)Oc2cccc(-c3ccc(Cc4nc5ccc(C(=O)O)cc5n4C[C@@H]4CCO4)cc3)c2O1 (stereo partly drawn) [Example 2, 2-(4-(2-(4-chloro-2-fluorophenyl)-2-methylbenzo[d][1,3]dioxol-4-yl)benzyl)-1-(((S)-oxetan-2-yl)methyl)-1H-benzo[d]imidazol-6-carboxylic acid] | 0.108
CC1(c2ccc(Cl)cc2F)Oc2cccc(-c3ccc(Cc4nc5ccc(C(=O)O)cc5n4C[C@@H]4CCO4)cc3F)c2O1 (stereo partly drawn) [Example 3, 2-(4-(2-(4-chloro-2-fluorophenyl)-2-methylbenzo[d][1,3]dioxol-4-yl)-3-fluorobenzyl)-1-(((S)-oxetan-2-yl)methyl)-1H-benzo[d]imidazol-6-carboxylic acid] | 0.041
CC1(c2ccc(Cl)cc2F)Oc2cccc(-c3ccc(Cc4nc5ccc(C(=O)O)cc5n4Cc4cnco4)cc3)c2O1 (stereo not shown) [Example 4, 2-(4-(2-(4-chloro-2-fluorophenyl)-2-methylbenzo[d][1,3]dioxol-4-yl)benzyl)-1-(oxazol-5-ylmethyl)-1H-benzo[d]imidazol-6-carboxylic acid] | 0.278
CC1(c2ccc(Cl)cc2F)Oc2cccc(-c3ccc(Cc4nc5ccc(C(=O)O)cc5n4Cc4cnco4)cc3F)c2O1 (stereo not shown) [Example 5, 2-(4-(2-(4-chloro-2-fluorophenyl)-2-methylbenzo[d][1,3]dioxol-4-yl)-3-fluorobenzyl)-1-(oxazol-5-ylmethyl)-1H-benzo[d]imidazol-6-carboxylic acid] | 0.16
O=C(O)c1ccc2nc(Cc3ccc(-c4cccnc4OCc4ccc(Cl)cc4F)cc3)n(Cc3cnco3)c2c1 [Example 6, 2-(4-(2-((4-chloro-2-fluorobenzyl)oxy)pyridin-3-yl)benzyl)-1-(oxazol-5-ylmethyl)-1H-benzo[d]imidazol-6-carboxylic acid] | 3.5
CCCn1cnnc1Cn1c(Cc2ccc(-c3cccnc3OCc3ccc(Cl)cc3F)cc2)nc2ccc(C(=O)O)cc21 [Example 7, 2-(4-(2-((4-chloro-2-fluorobenzyl)oxy)pyridin-3-yl)benzyl)-1-((4-propyl-4H-1,2,4-triazol-3-yl)methyl)-1H-benzo[d]imidazol-6-carboxylic acid] | > 80
CCCn1cnnc1Cn1c(Cc2ccc(-c3cccc4c3OC(C)(c3ccc(Cl)cc3F)O4)cc2)nc2ccc(C(=O)O)cc21 (stereo not shown) [Example 8, 2-(4-(2-(4-chloro-2-fluorophenyl)-2-methylbenzo[d][1,3]dioxol-4-yl)benzyl)-1-((4-propyl-4H-1,2,4-triazol-3-yl)methyl)-1H-benzo[d]imidazol-6-carboxylic acid] | 0.914
CCCn1cnnc1Cn1c(Cc2ccc(-c3cccc4c3OC(C)(c3ccc(Cl)cc3F)O4)c(F)c2)nc2ccc(C(=O)O)cc21 (stereo not shown) [Example 9, 2-(4-(2-(4-chloro-2-fluorophenyl)-2-methylbenzo[d][1,3]dioxol-4-yl)-3-fluorobenzyl)-1-((4-propyl-4H-1,2,4-triazol-3-yl)methyl)-1H-benzo[d]imidazol-6-carboxylic acid] | 0.772
CCn1cncc1Cn1c(Cc2ccc(-c3cccc4c3OC(C)(c3ccc(Cl)cc3F)O4)cc2)nc2ccc(C(=O)O)cc21 (stereo not shown) [Example 10, 2-(4-(2-(4-chloro-2-fluorophenyl)-2-methylbenzo[d][1,3]dioxol-4-yl)benzyl)-1-((1-ethyl-1H-imidazol-5-yl)methyl)-1H-benzo[d]imidazol-6-carboxylic acid] | 0.0216
CCn1cncc1Cn1c(Cc2ccc(-c3cccc4c3OC(C)(c3ccc(Cl)cc3F)O4)c(F)c2)nc2ccc(C(=O)O)cc21 (stereo not shown) [Example 11, 2-(4-(2-(4-chloro-2-fluorophenyl)-2-methylbenzo[d][1,3]dioxol-4-yl)-3-fluorobenzyl)-1-((1-ethyl-1H-imidazol-5-yl)methyl)-1H-benzo[d]imidazol-6-carboxylic acid] | 0.0256
CC1(c2ccc(Cl)cc2F)Oc2cccc(-c3ccc(Cc4nc5ccc(C(=O)O)cc5n4C[C@@H]4CCCO4)cc3)c2O1 (stereo partly drawn) [Example 12, 2-(4-(2-(4-chloro-2-fluorophenyl)-2-methylbenzo[d][1,3]dioxol-4-yl)benzyl)-1-(((S)-tetrahydrofuran-2-yl)methyl)-1H-benzo[d]imidazol-6-carboxylic acid] | 0.223
O=C(O)c1ccc2nc(Cc3ccc(-c4cccc(OCC56CCC(CC5)CC6)n4)cc3)n(C[C@@H]3CCO3)c2c1 [Example 13, (S)-2-(4-(6-(bicyclo[2.2.2]octan-1-ylmethoxy)pyridin-2-yl)benzyl)-1-(oxetan-2-ylmethyl)-1H-benzo[d]imidazol-6-carboxylic acid] | > 80
